Measured values taken from US10508310B2, “Method of predicting a response to an anti-tumor treatment” (SORBONNE UNIVERSITE, priority 2013, dated 2019).

What was measured:
Type in all cases: in vivo, mice
OV14 ovarian cancer PDX = assay: Tumor growth rate in OV14 patient-derived xenograft treated by DPT-C9h
Protocol: (§1) Nine models treated by DPT-C9h (5 mg/kg/d IP, 5 days weekly, 4 to 6 weeks) were selected for the study, i.e. 7 breast cancer PDXs (BC11, BC52, BC143, BC146, BC173, BC227, and BC256), and 2 ovarian cancer PDXs (OV14 and OVM33). Three tumors of both control and treated groups were collected at the end of therapy, except for the BC146 for which 2 control tumors and 3 treated tumors were obtained. For each collected tumor, tumor volume was estimated according to the following formulae: V=a×b2/2, where a and b are the largest and the smallest perpendicular tumor diameters.
(§2) In a second time, a median TGR was defined for the control and treated groups of each PDX model. Finally, a ratio was calculated for each PDX model, as: median TGR of the treated group/median TGR of the corresponding control group. The inventors considered that a model was responder to DPT-C9h if the ratio was ≤0.5 (p<0.05), and resistant if the ratio was ≥0.8. In this, 3 models were considered as responder (BC52, BC173 and OV14), 4 as resistant (BC11, BC146, BC227, and BC256), and 2 remained undefined and were excluded from analyses (BC143 and OVM33) (Table 1).

BC143 breast cancer PDX = assay: Tumor growth rate in BC143 patient-derived xenograft treated by DPT-C9h
Protocol: (§3) Breast-cancer patient xenografts (PDXs) were obtained by direct implant of patient tumor fragments in immunocompromised mice. (Arrouss Et al, PlosOne. 2013. 8, e60816).
as §1, §2

BC256 breast cancer PDX = assay: Tumor growth rate in BC256 patient-derived xenograft treated by DPT-C9h
Protocol: as §3, §1, §2

BC146 breast cancer PDX = assay: Tumor growth rate in BC146 patient-derived xenograft treated by DPT-C9h
Protocol: as §3, §1, §2

BC52 breast cancer PDX = assay: Tumor growth rate in BC52 patient-derived xenograft treated by DPT-C9h
Protocol: as §3, §1, §2

BC173 breast cancer PDX = assay: Tumor growth rate in BC173 patient-derived xenograft treated by DPT-C9h
Protocol: as §3, §1, §2

BC11 breast cancer PDX = assay: Tumor growth rate in BC11 patient-derived xenograft treated by DPT-C9h
Protocol: as §3, §1, §2

BC227 breast cancer PDX = assay: Tumor growth rate in BC227 patient-derived xenograft treated by DPT-C9h
Protocol: as §3, §1, §2

OVM33 ovarian cancer PDX = assay: Tumor growth rate in OVM33 patient-derived xenograft treated by DPT-C9h
Protocol: as §1, §2

[1] = TGR of treated group / TGR of control group
[2] = TGR=Vf/V1, 5 mg/kg/d IP, 5 days weekly, 4 to 6 weeks, end of therapy
[3] = responder if ratio ≤0.5 (p<0.05), resistant if ratio ≥0.8

VKKKKIKREIKI-YVETLDGIFEQWAHSEDL (VKKKKIKREIKIYVETLDGIFEQWAHSEDL; chimeric peptide) [DPT-C9h]
Ratio TGR (OV14 ovarian cancer PDX; [1]): 0.44 | Mean TGR DPT (OV14 ovarian cancer PDX; [2]): 10.7 | conclusion (responder / resistant) (OV14 ovarian cancer PDX; class from ratio TGR): + (+: responder) | model response to DPT-C9h (in words) (OV14 ovarian cancer PDX; [3]): responder | Ratio TGR (BC143 breast cancer PDX; [1]): 0.68 | Mean TGR DPT (BC143 breast cancer PDX; [2]): 27.7 | conclusion (responder / resistant) (BC143 breast cancer PDX; class from ratio TGR): ND (ND: unidentified) | model response to DPT-C9h (in words) (BC143 breast cancer PDX; [3]): undefined | Ratio TGR (BC256 breast cancer PDX; [1]): 1.23 | Mean TGR DPT (BC256 breast cancer PDX; [2]): 38.7 | conclusion (responder / resistant) (BC256 breast cancer PDX; class from ratio TGR): − (−: resistant) | model response to DPT-C9h (in words) (BC256 breast cancer PDX; [3]): resistant | Ratio TGR (BC146 breast cancer PDX; [1]): 0.96 | Mean TGR DPT (BC146 breast cancer PDX; [2]): 34.7 | conclusion (responder / resistant) (BC146 breast cancer PDX; class from ratio TGR): − (−: resistant) | model response to DPT-C9h (in words) (BC146 breast cancer PDX; [3]): resistant | Ratio TGR (BC52 breast cancer PDX; [1]): 0.38 | Mean TGR DPT (BC52 breast cancer PDX; [2]): 15.3 | conclusion (responder / resistant) (BC52 breast cancer PDX; class from ratio TGR): + (+: responder) | model response to DPT-C9h (in words) (BC52 breast cancer PDX; [3]): responder | Ratio TGR (BC173 breast cancer PDX; [1]): 0.45 | Mean TGR DPT (BC173 breast cancer PDX; [2]): 6.0 | conclusion (responder / resistant) (BC173 breast cancer PDX; class from ratio TGR): + (+: responder) | model response to DPT-C9h (in words) (BC173 breast cancer PDX; [3]): responder | Ratio TGR (BC11 breast cancer PDX; [1]): 0.90 | Mean TGR DPT (BC11 breast cancer PDX; [2]): 24.3 | conclusion (responder / resistant) (BC11 breast cancer PDX; class from ratio TGR): − (−: resistant) | model response to DPT-C9h (in words) (BC11 breast cancer PDX; [3]): resistant | Ratio TGR (BC227 breast cancer PDX; [1]): 1.38 | Mean TGR DPT (BC227 breast cancer PDX; [2]): 6.0 | conclusion (responder / resistant) (BC227 breast cancer PDX; class from ratio TGR): − (−: resistant) | model response to DPT-C9h (in words) (BC227 breast cancer PDX; [3]): resistant | Ratio TGR (OVM33 ovarian cancer PDX; [1]): 0.65 | Mean TGR DPT (OVM33 ovarian cancer PDX; [2]): 35.0 | conclusion (responder / resistant) (OVM33 ovarian cancer PDX; class from ratio TGR): ND (ND: unidentified) | model response to DPT-C9h (in words) (OVM33 ovarian cancer PDX; [3]): undefined
